Experimental data from PubChem BioAssay AID256 (DTP/NCI, 2004).
Values joined by “and” are separate entries in the source; they are usually repeats but may differ in a detail not shown here. Identical values can stand only once. Toxic doses and inconclusive results are not listed. The calls were made as follows: active = survival T/C of 150% or more; inactive = T/C below 125% in these data.

System: CD2F1 mice, L1210 leukemia ip, survival T/C
Assay: NCI In Vivo Anticancer Drug Screen. Data for tumor model L1210 Leukemia (intraperitoneal) in CD2F1 (CDF1) mice
Conditions: endpoint: mean survival time, higher = longer survival
Summary of the method: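 Vehicle-treated tumor-bearing mice served as controls (C) for compound-treated mice (T). Reported figure is T divided by C.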

[1] = dose: 50.0 mg/kg/injection, schedule: Q01DX009 (ip), vehicle: saline with Tween-80
[2] = dose: 100.0 mg/kg/injection, schedule: Q01DX009 (ip), vehicle: saline with Tween-80
[3] = dose: 200.0 mg/kg/injection, schedule: Q01DX009 (ip), vehicle: saline with Tween-80
[4] = dose: 400.0 mg/kg/injection, schedule: Q01DX009 (ip), vehicle: saline with Tween-80
[5] = dose: 100.0 mg/kg/injection, schedule: Q04DX003 (ip), vehicle: saline with Tween-80
[6] = dose: 200.0 mg/kg/injection, schedule: Q04DX003 (ip), vehicle: saline with Tween-80
[7] = dose: 400.0 mg/kg/injection, schedule: Q04DX003 (ip), vehicle: saline with Tween-80

Measured: T/C

NC(CO)C(O)C(O)C(O)CO (stereo unspecified)
inactive: dose: 100.0 mg/kg/injection, schedule: Q01DX001 (ip), vehicle: saline 106 % of control | dose: 200.0 mg/kg/injection, schedule: Q01DX001 (ip), vehicle: saline 98 % of control | dose: 400.0 mg/kg/injection, schedule: Q01DX001 (ip), vehicle: saline 103 % of control

O=[N+]([O-])c1ccc(F)c(Cl)c1
inactive: dose: 25.0 mg/kg/injection, schedule: Q01DX009 (ip), vehicle: other 96 % of control | dose: 50.0 mg/kg/injection, schedule: Q01DX009 (ip), vehicle: other 100 % of control | dose: 100.0 mg/kg/injection, schedule: Q01DX009 (ip), vehicle: other 96 % of control

CCCC/C=C/C(=O)OCC
inactive: [1] 91 % of control and 96 % of control | [2] 103 % of control and 101 % of control | [3] 103 % of control and 101 % of control

O=C(O)COc1ccc(F)cc1Br
inactive: dose: 100.0 mg/kg/injection, schedule: Q04DX002 (ip), vehicle: saline with Tween-80 93 % of control | dose: 200.0 mg/kg/injection, schedule: Q04DX002 (ip), vehicle: saline with Tween-80 93 % of control | dose: 400.0 mg/kg/injection, schedule: Q04DX002 (ip), vehicle: saline with Tween-80 93 % of control

Cc1[nH]c(=O)[nH]c(=O)c1NC(=O)c1ccccc1[N+](=O)[O-]
inactive: dose: 12.5 mg/kg/injection, schedule: Q01DX009 (ip), vehicle: saline with Tween-80 98 % of control | dose: 12.5 mg/kg/injection, schedule: Q04DX003 (ip), vehicle: saline sonified 100 % of control | dose: 25.0 mg/kg/injection, schedule: Q01DX009 (ip), vehicle: saline with Tween-80 104 % of control | dose: 25.0 mg/kg/injection, schedule: Q04DX003 (ip), vehicle: saline sonified 103 % of control | [1] 97 % of control | dose: 50.0 mg/kg/injection, schedule: Q04DX003 (ip), vehicle: saline sonified 94 % of control

Brc1ccc(N=Cc2ccccc2)cc1
inactive: dose: 100.0 mg/kg/injection, schedule: Q04DX002 (ip), vehicle: saline 100 % of control | dose: 200.0 mg/kg/injection, schedule: Q04DX002 (ip), vehicle: saline 103 % of control | dose: 400.0 mg/kg/injection, schedule: Q04DX002 (ip), vehicle: saline 107 % of control

CC(=O)N(C)N=Nc1ccc([N+](=O)[O-])cc1
inactive: dose: 25.0 mg/kg/injection, schedule: Q04DX003 (ip), vehicle: Klucel (hydroxypropylcellulose) (HPC) 103 % of control | dose: 50.0 mg/kg/injection, schedule: Q04DX003 (ip), vehicle: Klucel (hydroxypropylcellulose) (HPC) 103 % of control | dose: 100.0 mg/kg/injection, schedule: Q04DX003 (ip), vehicle: Klucel (hydroxypropylcellulose) (HPC) 97 % of control | dose: 200.0 mg/kg/injection, schedule: Q04DX003 (ip), vehicle: Klucel (hydroxypropylcellulose) (HPC) 114 % of control

Cc1ccc(S(=O)(=O)N(C)c2ccc(C(=O)O)c(Cl)c2Cl)cc1
inactive: dose: 100.0 mg/kg/injection, schedule: Q01DX001 (ip), vehicle: saline with Tween-80 96 % of control | [2] 101 % of control | dose: 200.0 mg/kg/injection, schedule: Q01DX001 (ip), vehicle: saline with Tween-80 93 % of control | [3] 98 % of control | dose: 400.0 mg/kg/injection, schedule: Q01DX001 (ip), vehicle: saline with Tween-80 102 % of control | [4] 98 % of control

CCN(C(=O)Nc1ccccc1OC)c1ccccc1
inactive: [5] 98 % of control | [6] 98 % of control | [7] 93 % of control

CCOC(=O)c1nc2cc(C)c(C)cc2[nH]c1=O
inactive: [2] 95 % of control | [3] 89 % of control | [4] 100 % of control

CC(CO)CCC(C)CO (stereo unspecified)
inactive: [5] 100 % of control | [6] 95 % of control | [7] 100 % of control

COC(CCN1C(=O)c2ccccc2C1=O)C(Br)C(=O)O (stereo unspecified)
inactive: [2] 92 % of control | [5] 101 % of control | [3] 92 % of control | [6] 97 % of control | [4] 89 % of control | [7] 98 % of control
